O=C(O)CC(O)C(=O)O (configuration not stated)
solubility (mole fraction)
Conditions	303.2 K	308.2 K	313.2 K	318.2 K	323.2 K	328.2 K	333.2 K
in 1,4-dioxane	0.14	0.153	0.16	0.168	0.177	0.192	0.21
in THF	0.145	0.156	0.191	0.199	0.219	0.235	0.253
in acetonitrile	0.007	0.009	0.011	0.012	0.015	0.017	0.021
in ethanol	0.082	0.091	0.101	0.115	0.121	0.129	0.134
in isopropanol	0.036	0.045	0.055	0.071	0.094	0.118	0.134
in water	0.066	0.084	0.106	0.132	0.154	0.17	0.184

From BigSolDB 2.1
